target: T1, FimH proteins (Escherichia coli, UniProt Q1R2J4); assay: hemagglutination inhibition (HAI) assay: UPEC UTI89 with guinea pig red blood cells; assay type: cell-based, uropathogenic Escherichia coli (UPEC) UTI89; settings: read-out: HAI EC90 (minimum concentration for inhibiting hemagglutination)
T1 construct: endogenous in cells; host or cells: UPEC strain UTI89 (whole bacteria)
Procedure: In the present example, the mannose derivatives A1 to A107 that were prepared in Examples 1 to 12 were analyzed in hemagglutination inhibition (HAI) assays to determine inhibitory effects of the compounds on the function/activity of FimH proteins.
1. Preparation of a guinea pig red blood cell solution: an adult guinea pig was anesthetized with ethyl ether, blood was sampled from the heart, placed in an EDTA blood collection tube, and centrifuged at 2,000 rpm for 5 min, serum was removed, the sample was transferred in a centrifuge tube (15 mL), sterilized PBS was added, the sample was centrifuged at 1,500 rpm for 10 min, a supernatant was removed, the sample was transferred in a centrifuge tube (50 mL), PBS was added, the sample was centrifuged at 1,500 rpm for 10 min and repeatedly washed twice, and red blood cells were slightly aspirated into a new centrifuge tube (50 mL) to obtain a 5% guinea pig red blood cell solution.
2. Preparation of a bacteria solution: a UPEC cell line UTI89 was inoculated on a medium plate and cultured in an incubator at 37° C. overnight. Single colonies were picked and inoculated in an LB medium in a sterilized conical flask, and cultured at 37° C. and 170 r/min overnight. When an OD value at 540 nm was about 0.8 on a microplate reader, the bacterial concentration was about 10^8-10^9 cfu/mL, the bacteria solution was centrifuged at 2,000 rpm for 10 min, a supernatant was removed, and 1 mL of bacteria solution was prepared into 0.1 mL of PBS bacteria solution. […] The bacteria and the medium were uniformly mixed by shaking, and reacted in an incubator at 25° C. for about 20-40 min. When the plate was read, the wells in which complete agglutination occurred were used as 4HAU for the hemagglutination titer of the bacteria. For example, if the endpoint titer of hemagglutination is 1:256, the dilution multiple of the 4HAU antigen is 1:64 (256 divided by 4). Bacteria solutions at corresponding concentrations were prepared according to the experimental results.
3. Activity assay: a compound to be tested or a standard product was placed in a 96-well microtest plate, 50 μL of drug at an initial concentration of 200 μM was placed in the first well, and from the second well, 25 μL of PBS was added to each well to dilute the drug in proportion. The drug and the medium in the first well were mixed, 25 μL of mixed drug solution was placed in the second well, the drug solution was diluted in sequence to the last well, and 25 μL of drug solution was removed. 25 μL of bacteria solution was placed in each well of the culture plate containing the diluted drug, and cultured at 37° C. for 40 min. 25 μL of 5% guinea pig red blood cell suspension was placed in each well, and slightly uniformly mixed with the drug, and the plate was placed at 4° C. for about 1 h. When results were determined, the plate was tilted 60°, and whether the red blood cells flowed like teardrops was observed.
Mannosyl proteins are expressed on the surface of red blood cells in a guinea pig, which can bind to FimH proteins of UTI89 to cause hemagglutination. It can be observed with the naked eyes that the red blood cells form film-like agglutination at the bottom of the well, and loose red dots can be seen in the center. The FimH protein inhibitor competitively binds to FimH proteins to inhibit hemagglutination. It can be observed with the naked eyes that all the red blood cells sink and concentrate at the bottom of the well to form dense dots. The minimum concentration for inhibiting hemagglutination is expressed as an EC90 value of a compound. The final concentration of the compound in the first well is 66700 nM, the concentration in the second well is half that in the first well, the concentration in the third well is half that in the second well, and so on. […] A low EC90 value indicates high activity of a compound.

Point of comparison: CS(=O)(=O)c1cccc(C#C[C@@]2(O)[C@@H](C#Cc3ccccc3)O[C@H](CO)[C@@H](O)[C@@H]2O)c1 [Compound A22], EC90 0.13 µM. Against it:
- CNC(=O)c1cccc(-c2ccc(O[C@H]3O[C@H](CO)[C@@H](O)[C@H](O)[C@@]3(O)C#Cc3ccccc3)c(C)c2)c1 [Compound A1] — 16-fold lower, 0.008 µM
- CNC(=O)c1cccc(-c2ccc(O[C@H]3O[C@H](CO)[C@@H](O)[C@H](O)[C@@]3(O)C#CC3CC3)c(C)c2)c1 [Compound A2] — 8.1-fold lower, 0.016 µM
- CNC(=O)c1cccc(-c2ccc(O[C@H]3O[C@H](CO)[C@@H](O)[C@H](O)[C@@]3(O)C#Cc3cnn(C)c3)c(C)c2)c1 [Compound A3] — 8.1-fold lower, 0.016 µM
- Cc1cc(Br)ccc1O[C@H]1O[C@H](CO)[C@@H](O)[C@H](O)[C@@]1(O)C#Cc1ccccc1 [Compound A4] — 8-fold higher, 1.04 µM
- Cc1ccccc1O[C@H]1O[C@H](CO)[C@@H](O)[C@H](O)[C@@]1(O)C#Cc1ccccc1 [Compound A5] — 4-fold higher, 0.52 µM
- CC(C)O[C@H]1O[C@H](CO)[C@@H](O)[C@H](O)[C@@]1(O)C#Cc1ccccc1 [Compound A6] — 8-fold higher, 1.04 µM
- CCC(C)O[C@H]1O[C@H](CO)[C@@H](O)[C@H](O)[C@@]1(O)C#Cc1ccccc1 (stereo partly drawn) [Compound A7] — 2-fold higher, 0.26 µM
- CC(C)C(C)O[C@H]1O[C@H](CO)[C@@H](O)[C@H](O)[C@@]1(O)C#Cc1ccccc1 (stereo partly drawn) [Compound A8] — 2-fold higher, 0.26 µM
- CCC(CC)O[C@H]1O[C@H](CO)[C@@H](O)[C@H](O)[C@@]1(O)C#Cc1ccccc1 [Compound A9] — the same, 0.13 µM
- OC[C@H]1O[C@H](C#Cc2cnn(-c3ccc(OC(F)(F)F)cc3)c2)[C@](O)(C#CC2CC2)[C@@H](O)[C@@H]1O [Compound A10] — 1000-fold lower, 0.00013 µM
- OC[C@H]1O[C@H](OC2CCCC2)[C@](O)(C#Cc2ccccc2)[C@@H](O)[C@@H]1O [Compound A11] — 4-fold higher, 0.52 µM
- OC[C@H]1O[C@H](OC2CCCCC2)[C@](O)(C#Cc2ccccc2)[C@@H](O)[C@@H]1O [Compound A12] — 2-fold higher, 0.26 µM
- OC[C@H]1O[C@H](OC2CCC(F)(F)CC2)[C@](O)(C#Cc2ccccc2)[C@@H](O)[C@@H]1O [Compound A13] — 8-fold higher, 1.04 µM
- C#C[C@H]1O[C@H](CO)[C@@H](O)[C@H](O)[C@@]1(O)C#Cc1ccccc1 [Compound A14] — 32-fold higher, 4.16 µM
- CC#C[C@H]1O[C@H](CO)[C@@H](O)[C@H](O)[C@@]1(O)C#Cc1ccccc1 [Compound A15] — 4-fold higher, 0.52 µM
- OC[C@H]1O[C@H](C#CC2CC2)[C@](O)(C#Cc2ccccc2)[C@@H](O)[C@@H]1O [Compound A16] — the same, 0.13 µM
- OC[C@H]1O[C@H](C#Cc2ccccc2)[C@](O)(C#Cc2ccccc2)[C@@H](O)[C@@H]1O [Compound A17] — the same, 0.13 µM
- Cc1cccc(C#C[C@@]2(O)[C@@H](C#Cc3ccccc3)O[C@H](CO)[C@@H](O)[C@@H]2O)c1 [Compound A18] — 2-fold higher, 0.26 µM
- CC(C)c1cccc(C#C[C@@]2(O)[C@@H](C#Cc3ccccc3)O[C@H](CO)[C@@H](O)[C@@H]2O)c1 [Compound A19] — 4-fold higher, 0.52 µM
- OC[C@H]1O[C@H](C#Cc2ccccc2)[C@](O)(C#Cc2cccc(C3CC3)c2)[C@@H](O)[C@@H]1O [Compound A20] — 2-fold higher, 0.26 µM
- CC(C)Oc1cccc(C#C[C@@]2(O)[C@@H](C#Cc3ccccc3)O[C@H](CO)[C@@H](O)[C@@H]2O)c1 [Compound A21] — 2-fold higher, 0.26 µM
- CC(C)n1cc(C#C[C@@]2(O)[C@@H](C#Cc3ccccc3)O[C@H](CO)[C@@H](O)[C@@H]2O)ccc1=O [Compound A23] — 2-fold higher, 0.26 µM
- OC[C@H]1O[C@H](C#Cc2ccccc2)[C@](O)(C#Cc2cccc3ccccc23)[C@@H](O)[C@@H]1O [Compound A24] — 2-fold higher, 0.26 µM
- Cc1cccc(C#C[C@H]2O[C@H](CO)[C@@H](O)[C@H](O)[C@@]2(O)C#Cc2ccccc2)c1 [Compound A25] — 2-fold higher, 0.26 µM
- CC(C)c1cccc(C#C[C@H]2O[C@H](CO)[C@@H](O)[C@H](O)[C@@]2(O)C#Cc2ccccc2)c1 [Compound A26] — the same, 0.13 µM
- CC(C)Oc1cccc(C#C[C@H]2O[C@H](CO)[C@@H](O)[C@H](O)[C@@]2(O)C#Cc2ccccc2)c1 [Compound A27] — the same, 0.13 µM
- OC[C@H]1O[C@H](C#Cc2cccc(C(F)(F)F)c2)[C@](O)(C#Cc2ccccc2)[C@@H](O)[C@@H]1O [Compound A28] — 2-fold higher, 0.26 µM
- OC[C@H]1O[C@H](C#Cc2cccc3ccccc23)[C@](O)(C#Cc2ccccc2)[C@@H](O)[C@@H]1O [Compound A29] — 4-fold higher, 0.52 µM
- OC[C@H]1O[C@H](C#Cc2ccc3ccccc3c2)[C@](O)(C#Cc2ccccc2)[C@@H](O)[C@@H]1O [Compound A30] — 8-fold higher, 1.04 µM
- OC[C@H]1O[C@H](C#Cc2cnn(-c3ccc(OCC4CC4)cc3)c2)[C@](O)(C#CC2CC2)[C@@H](O)[C@@H]1O [Compound A31] — lower, < 0.0001 µM
- OC[C@H]1O[C@H](C#Cc2cccc(-c3ccccc3)c2)[C@](O)(C#Cc2ccccc2)[C@@H](O)[C@@H]1O [Compound A32] — the same, 0.13 µM
- CC(C)n1cc(C#C[C@H]2O[C@H](CO)[C@@H](O)[C@H](O)[C@@]2(O)C#Cc2ccccc2)ccc1=O [Compound A33] — 16-fold lower, 0.008 µM
- Cn1cc(C#C[C@H]2O[C@H](CO)[C@@H](O)[C@H](O)[C@@]2(O)C#Cc2ccccc2)cn1 [Compound A34] — 2-fold lower, 0.064 µM
- Cn1ncc(C#C[C@H]2O[C@H](CO)[C@@H](O)[C@H](O)[C@@]2(O)C#Cc2ccccc2)c1Cl [Compound A35] — 4-fold higher, 0.52 µM
- Cc1c(C#C[C@H]2O[C@H](CO)[C@@H](O)[C@H](O)[C@@]2(O)C#Cc2ccccc2)cnn1C [Compound A36] — 2-fold higher, 0.26 µM
- Cc1nn(C)cc1C#C[C@H]1O[C@H](CO)[C@@H](O)[C@H](O)[C@@]1(O)C#Cc1ccccc1 [Compound A38] — 2-fold higher, 0.26 µM
- CC(C)n1cc(C#C[C@H]2O[C@H](CO)[C@@H](O)[C@H](O)[C@@]2(O)C#Cc2ccccc2)cn1 [Compound A39] — 16-fold lower, 0.008 µM
- CCn1cc(C#C[C@H]2O[C@H](CO)[C@@H](O)[C@H](O)[C@@]2(O)C#Cc2ccccc2)cn1 [Compound A40] — 4.1-fold lower, 0.032 µM
- CCC(C)n1cc(C#C[C@H]2O[C@H](CO)[C@@H](O)[C@H](O)[C@@]2(O)C#Cc2ccccc2)cn1 (stereo partly drawn) [Compound A41] — 16-fold lower, 0.008 µM
- OC[C@H]1O[C@H](C#Cc2cnn(CC3CC3)c2)[C@](O)(C#Cc2ccccc2)[C@@H](O)[C@@H]1O [Compound A42] — 32-fold lower, 0.004 µM
- OC[C@H]1O[C@H](C#Cc2cnn(Cc3ccccc3)c2)[C@](O)(C#Cc2ccccc2)[C@@H](O)[C@@H]1O [Compound A43] — 4.1-fold lower, 0.032 µM
- OC[C@H]1O[C@H](C#Cc2cnn(C3CCC3)c2)[C@](O)(C#Cc2ccccc2)[C@@H](O)[C@@H]1O [Compound A44] — 16-fold lower, 0.008 µM
- OC[C@H]1O[C@H](C#Cc2cnn(C3CCCC3)c2)[C@](O)(C#Cc2ccccc2)[C@@H](O)[C@@H]1O [Compound A45] — 130-fold lower, 0.001 µM
- OC[C@H]1O[C@H](C#Cc2cnn(C3CCCCC3)c2)[C@](O)(C#Cc2ccccc2)[C@@H](O)[C@@H]1O [Compound A46] — 260-fold lower, 0.0005 µM
- OC[C@H]1O[C@H](C#Cc2cnn(-c3ccccc3)c2)[C@](O)(C#Cc2ccccc2)[C@@H](O)[C@@H]1O [Compound A47] — 520-fold lower, 0.00025 µM
- OC[C@H]1O[C@H](C#Cc2cnn(-c3ccccc3Cl)c2)[C@](O)(C#Cc2ccccc2)[C@@H](O)[C@@H]1O [Compound A48] — 130-fold lower, 0.001 µM
- OC[C@H]1O[C@H](C#Cc2cnn([C@H]3CCOC3)c2)[C@](O)(C#Cc2ccccc2)[C@@H](O)[C@@H]1O [Compound A49] — 8.1-fold lower, 0.016 µM

— patent US11964996B2, “2-alkynylmannose derivative and application thereof” (priority 2020, dated 2024)
